Like-named read-outs stand apart in the source and are kept apart here.
Legend:
MLK1/MAP3K9 = biological target: T1, MLK1/MAP3K9 (Homo sapiens, UniProt P80192); assay: Radiolabeled ATP kinase assay (Reaction Biology Corp.), MLK1; type: biochemical; details: [Cmpd] 0.1 μM, 10 μM ATP
T1 construct: purchased Reaction Biology Corp
Experimental: (§1) Meanwhile, the same analogs were analyzed in a radiolabeled ATP assay (10 μM ATP; Reaction Biology Corp.) to compare the extent to which they could inhibit the activity of HGK, MLK1, or MLK3 in a cell-free environment (Table S3 and S4).

MLK3/MAP3K11 = biological target: T2, MLK3/MAP3K11 (Homo sapiens, UniProt Q16584); assay: Radiolabeled ATP kinase assay (Reaction Biology Corp.), MLK3; type: biochemical; details: [Cmpd] 0.1 μM; 10 μM ATP
T2 construct: purchased Reaction Biology Corp
T2 sequence (Q16584 whole entry): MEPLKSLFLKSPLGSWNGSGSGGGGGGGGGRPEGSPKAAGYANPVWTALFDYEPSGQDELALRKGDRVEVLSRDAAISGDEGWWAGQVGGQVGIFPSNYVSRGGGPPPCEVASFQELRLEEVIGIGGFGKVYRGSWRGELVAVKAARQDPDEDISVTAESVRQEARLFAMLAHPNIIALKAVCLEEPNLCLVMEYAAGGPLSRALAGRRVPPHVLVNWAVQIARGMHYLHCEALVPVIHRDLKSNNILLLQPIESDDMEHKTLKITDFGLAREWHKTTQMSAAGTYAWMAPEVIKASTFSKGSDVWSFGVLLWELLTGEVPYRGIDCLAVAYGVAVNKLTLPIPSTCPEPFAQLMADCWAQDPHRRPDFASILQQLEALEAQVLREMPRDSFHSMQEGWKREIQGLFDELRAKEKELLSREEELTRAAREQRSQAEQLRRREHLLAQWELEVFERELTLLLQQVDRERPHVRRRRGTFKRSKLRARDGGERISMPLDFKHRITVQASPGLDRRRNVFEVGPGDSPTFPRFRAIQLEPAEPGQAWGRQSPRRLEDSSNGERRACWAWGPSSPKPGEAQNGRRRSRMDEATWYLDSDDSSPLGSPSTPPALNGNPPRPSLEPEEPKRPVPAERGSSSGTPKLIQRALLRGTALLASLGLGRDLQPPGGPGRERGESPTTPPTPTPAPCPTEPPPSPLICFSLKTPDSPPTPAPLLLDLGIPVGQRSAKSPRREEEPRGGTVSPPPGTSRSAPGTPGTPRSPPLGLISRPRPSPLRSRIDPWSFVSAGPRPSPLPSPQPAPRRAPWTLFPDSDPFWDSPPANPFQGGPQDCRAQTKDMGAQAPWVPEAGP
Experimental: as §1

HGK/MAP4K4 = HGK/MAP4K4 (Homo sapiens, UniProt O95819); assay: Radiolabeled ATP kinase assay (Reaction Biology Corp.), HGK; type: biochemical; design: purchased Reaction Biology Corp; details: 10 μM ATP, read-out: % Enzyme Activity (relative to DMSO controls), HGK/MAP4K4, Data 1; for remaining activity at 0.025 µM: [Cmpd] 0.025 μM; for remaining activity at 0.1 µM: [Cmpd] 0.1 μM
Chain of HGK/MAP4K4 (O95819 whole entry): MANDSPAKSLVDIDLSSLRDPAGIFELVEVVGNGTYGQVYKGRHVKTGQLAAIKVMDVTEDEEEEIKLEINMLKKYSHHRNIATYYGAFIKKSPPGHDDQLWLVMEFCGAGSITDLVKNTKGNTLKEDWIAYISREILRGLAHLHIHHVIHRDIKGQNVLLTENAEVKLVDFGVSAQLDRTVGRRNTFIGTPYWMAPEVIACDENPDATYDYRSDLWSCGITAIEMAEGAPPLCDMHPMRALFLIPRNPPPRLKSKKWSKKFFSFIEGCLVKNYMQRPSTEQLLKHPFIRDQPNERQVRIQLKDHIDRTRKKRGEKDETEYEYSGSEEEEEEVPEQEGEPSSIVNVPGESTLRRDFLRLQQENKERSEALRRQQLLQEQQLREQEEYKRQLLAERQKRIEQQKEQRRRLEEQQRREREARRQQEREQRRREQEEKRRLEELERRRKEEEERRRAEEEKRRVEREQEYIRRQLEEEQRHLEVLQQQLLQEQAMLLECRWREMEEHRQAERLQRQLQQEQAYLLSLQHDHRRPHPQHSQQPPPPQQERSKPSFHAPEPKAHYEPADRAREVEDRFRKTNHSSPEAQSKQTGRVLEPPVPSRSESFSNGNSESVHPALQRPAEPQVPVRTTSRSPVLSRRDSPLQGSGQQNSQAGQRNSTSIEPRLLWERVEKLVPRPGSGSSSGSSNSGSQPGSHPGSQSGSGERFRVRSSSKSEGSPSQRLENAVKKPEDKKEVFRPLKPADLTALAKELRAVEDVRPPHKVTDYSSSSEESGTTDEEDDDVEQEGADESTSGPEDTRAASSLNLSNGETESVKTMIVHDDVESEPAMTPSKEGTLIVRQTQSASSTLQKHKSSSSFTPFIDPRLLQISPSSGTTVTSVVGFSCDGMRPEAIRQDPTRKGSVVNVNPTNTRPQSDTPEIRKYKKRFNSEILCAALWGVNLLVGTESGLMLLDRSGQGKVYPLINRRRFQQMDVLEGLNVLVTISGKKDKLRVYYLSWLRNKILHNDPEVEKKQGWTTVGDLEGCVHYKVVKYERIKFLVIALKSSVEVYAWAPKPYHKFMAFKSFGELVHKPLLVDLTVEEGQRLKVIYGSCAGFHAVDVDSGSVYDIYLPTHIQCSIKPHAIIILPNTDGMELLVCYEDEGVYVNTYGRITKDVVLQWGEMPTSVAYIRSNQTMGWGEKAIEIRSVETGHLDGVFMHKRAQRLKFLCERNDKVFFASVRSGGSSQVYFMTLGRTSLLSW
Experimental: as §1

[1] = tested on: human ES motor neurons carrying the ALS-causing SOD1^A4V mutation; assay: cells; type: cell-based; details: for EC50 / viability at 1 µM / Emax: Homo sapiens, Neuron, 72 h; for EC50 / Emax: CPA 33 μM; for EC50: read-out: EC50; for viability at 1 µM: CPA (33 μM) + compound (1 μM), read-out: Motor Neuron Survival, % untreated; for Emax: read-out: Emax (MN survival % untreated)
Experimental: Next, survival assays were performed with all the analogs at once to generate a low-variability dataset. All compounds were evaluated at concentrations ranging from 0.1-3.0 μM (five-point dilution) in three technical replicates and two biological replicates.

[2] = read-out: % Enzyme Activity Remaining (relative to DMSO controls), MLK1/MAP3K9, Data 1
[3] = read-out: % Enzyme Activity Remaining (relative to DMSO controls), MLK1/MAP3K9, Data 2

T1 sequence (P80192 whole entry): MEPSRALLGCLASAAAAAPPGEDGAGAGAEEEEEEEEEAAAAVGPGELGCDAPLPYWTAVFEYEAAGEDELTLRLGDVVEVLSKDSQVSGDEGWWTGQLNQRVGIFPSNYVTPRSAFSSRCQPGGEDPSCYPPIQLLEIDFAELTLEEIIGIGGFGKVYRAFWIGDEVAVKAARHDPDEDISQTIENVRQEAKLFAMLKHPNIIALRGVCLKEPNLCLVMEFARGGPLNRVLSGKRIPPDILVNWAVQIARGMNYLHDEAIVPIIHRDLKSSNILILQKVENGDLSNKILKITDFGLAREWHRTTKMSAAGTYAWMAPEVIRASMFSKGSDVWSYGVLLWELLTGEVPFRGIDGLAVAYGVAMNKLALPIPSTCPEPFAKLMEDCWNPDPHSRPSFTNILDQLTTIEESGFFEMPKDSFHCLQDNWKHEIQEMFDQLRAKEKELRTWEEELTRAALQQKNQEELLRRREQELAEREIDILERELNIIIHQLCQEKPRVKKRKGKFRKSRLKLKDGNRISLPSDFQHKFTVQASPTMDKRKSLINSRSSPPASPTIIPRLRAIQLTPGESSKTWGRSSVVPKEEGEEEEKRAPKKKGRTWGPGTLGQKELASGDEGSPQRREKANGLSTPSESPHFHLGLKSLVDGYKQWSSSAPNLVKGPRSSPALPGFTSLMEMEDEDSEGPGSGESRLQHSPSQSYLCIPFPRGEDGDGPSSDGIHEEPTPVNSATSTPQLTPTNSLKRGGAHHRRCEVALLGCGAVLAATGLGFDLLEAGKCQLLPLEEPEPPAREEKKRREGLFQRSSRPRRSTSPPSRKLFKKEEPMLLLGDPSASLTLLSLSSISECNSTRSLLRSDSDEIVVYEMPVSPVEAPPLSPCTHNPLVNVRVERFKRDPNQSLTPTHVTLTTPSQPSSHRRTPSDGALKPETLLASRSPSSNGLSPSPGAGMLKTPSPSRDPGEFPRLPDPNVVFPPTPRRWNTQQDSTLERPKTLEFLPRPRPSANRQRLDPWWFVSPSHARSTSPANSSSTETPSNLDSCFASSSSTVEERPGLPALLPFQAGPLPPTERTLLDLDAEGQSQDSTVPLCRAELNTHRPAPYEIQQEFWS

| Compound | remaining activity at 0.1 µM (MLK1/MAP3K9; [2]) [%] | remaining activity at 0.1 µM (MLK1/MAP3K9; [3]) [%] | % Enzyme Activity Remaining (relative to DMSO controls), MLK3/MAP3K11, Data 1 (MLK3/MAP3K11) [%] | % Enzyme Activity Remaining (relative to DMSO controls), MLK3/MAP3K11, Data 2 (MLK3/MAP3K11) [%] | remaining activity at 0.025 µM (HGK/MAP4K4) [%] | remaining activity at 0.1 µM (HGK/MAP4K4) [%] | EC50 [1] [nM] | viability at 1 µM [1] [%] | Emax [1] [%] | rescue of MNs in the CPA survival assay ([1]; FIG. 9) |
| --- | --- | --- | --- | --- | --- | --- | --- | --- | --- | --- |
| CN1CCN(Cc2ccc(-c3cnc4[nH]cc(-c5cc6ccccc6[nH]5)c4c3)cc2)CC1 [Compound 7a, 3-(1H-Indol-2-yl)-5-(4-((4-methylpiperazin-1-yl)methyl)phenyl)-1H-pyrrolo[2,3-b]pyridine] | 74.2 | 75.1 | 63.66 | 64.82 | 86.1 | 58.8 |  |  |  |  |
| CN1CCN(Cc2ccc(-c3cnc4[nH]cc(-c5cc(C(F)(F)F)cc(C(F)(F)F)c5)c4c3)cc2)CC1 [Compound 7aj, 3-(3,5-Bis(trifluoromethyl)phenyl)-5-(4-((4-methylpiperazin-1-yl)methyl)phenyl)-1H-pyrrolo[2,3-b]pyridine] | 96.4 | 92.6 | 95.75 | 93.75 | 103 | 86.6 |  |  |  |  |
| CN1CCN(Cc2ccc(-c3cnc4[nH]cc(-c5cc6ccccc6s5)c4c3)cc2)CC1 [Compound 7g, 3-(Benzo[b]thiophen-2-yl)-5-(4-((4-methylpiperazin-1-yl)methyl)phenyl)-1H-pyrrolo[2,3-b]pyridine] | 55.9 | 58.5 | 45.87 | 42.66 |  |  |  |  |  |  |
| CC(C)Oc1ccc(-c2c[nH]c3ncc(-c4ccc(CN5CCN(C)CC5)cc4)cc23)cc1 [Compound 7q, 3-(4-Isopropoxyphenyl)-5-(4-((4-methylpiperazin-1-yl)methyl)phenyl)-1H-pyrrolo[2,3-b]pyridine] | 94.1 | 95.4 | 91.91 | 89.69 |  |  | 740 | 20.6 | 21.5 |  |
| CN1C2CCC1CN(Cc1ccc(-c3cnc4[nH]cc(-c5ccc6[nH]ccc6c5)c4c3)cc1)C2 [Compound 12b, 3-(1H-Indol-5-yl)-5-(4-((8-methyl-3,8-diazabicyclo[3.2.1]octan-3-yl)methyl)phenyl)-1H-pyrrolo[2,3-b]pyridine] |  |  |  |  | 69 | 34.5 | 1960 | 25.2 | 72.6 |  |
| CN1CC2CCC(C1)N2Cc1ccc(-c2cnc3[nH]cc(-c4ccc5[nH]ccc5c4)c3c2)cc1 [Compound 12c, 3-(1H-Indol-5-yl)-5-(4-((3-methyl-3,8-diazabicyclo[3.2.1]octan-8-yl)methyl)phenyl)-1H-pyrrolo[2,3-b]pyridine] |  |  |  |  | 92.7 | 84.2 | 694 | 43.7 | 43.7 |  |
| CN1C2CCC1CN(Cc1ccc(-c3cnc4[nH]cc(-c5cccc6[nH]ncc56)c4c3)cc1)C2 [Compound 12d, 4-(5-(4-((8-Methyl-3,8-diazabicyclo[3.2.1]octan-3-yl)methyl)phenyl)-1H-pyrrolo[2,3-b]pyridin-3-yl)-1H-indazole] |  |  |  |  | 3.17 | -0.29 | 301 | 109 | 143 |  |
| Fc1cccc(-c2c[nH]c3ncc(-c4ccc(CN5CCC(N6CCCCC6)CC5)cc4)cc23)c1 [Compound 12g, 5-(4-([1,4′-Bipiperidin]-1′-ylmethyl)phenyl)-3-(3-fluorophenyl)-1H-pyrrolo[2,3-b]pyridine] |  |  |  |  |  |  | 50 |  | 89.3 |  |
| CC(C)(C)N1CCN(Cc2ccc(-c3cnc4[nH]cc(-c5cccc(F)c5)c4c3)cc2)CC1 [Compound 12j, 5-(4-((4-(tert-Butyl)piperazin-1-yl)methyl)phenyl)-3-(3-fluorophenyl)-1H-pyrrolo[2,3-b]pyridine] |  |  |  |  |  |  | 50 |  | 98.5 |  |
| NG-25 [reference compound] |  |  |  |  |  |  |  |  |  | unable to rescue MNs |

From patent publication US12227500B2, “Substituted pyrrolo[2,3-b]pyridines for suppressing toxic endoplasmic reticulum stress” (THE TRUSTEES OF COLUMBIA UNIVERSITY IN THE CITY OF NEW YORK, priority 2018, dated 2025)
